Compound	melting point [°C]
O=C1CCC(c2ccccc2)(N2CCOCC2)CC1	116 to 119
O=C(Nc1ccc(N2CCNCC2)c(C(F)(F)F)c1)c1ccc(F)c(OCc2cncc3ccccc23)c1	103 to 107
CC(C)(O)C#Cc1ccc(F)cc1	124
C=CCOc1cc(N2C(=O)C3CCCCN3C2=O)c(F)cc1C#N (centres undefined)	132
CCNC(=S)Nc1cc(F)ccc1C	93 to 95
Cc1ncn(-c2ccccc2CNC(=O)c2nc3n(c(=O)c2OCc2ccccc2)CCOC3(C)C)n1	213 to 214
COc1ccc2c(c1)C1(CCCCc3ccccc31)NC2=O (centres undefined)	189 to 190
O=c1[nH]nc2n1-c1ccc(Cl)nc1C(c1ccccc1)=[N+]([O-])C2	268 to 270
CC(=C1SC(=O)NC1=O)c1ccc(OCCOc2c(-c3ccc(F)cc3)n(C)c3ccc(F)cc3c2=O)cc1	245 to 248
CC(=O)c1ccc(S(N)(=O)=O)c(Cl)c1	146 to 148
CCCCCCCCc1ccc(OCC(=O)Cn2cc(C(=O)O)c3ccccc32)cc1	182 to 183
COc1cc2c(c(C)c1C)C(O)CC2c1c[nH]cn1 (centres undefined)	184 to 189
Cc1cc2c(nc1C(O)c1cccs1)CCCCC2 (centres undefined)	102 to 104
CC(=O)/C=C/c1ncn2c1CN(C)C(=O)c1c(Cl)cccc1-2	235 to 237
FCC=Cc1ncn(C(c2ccccc2)(c2ccccc2)c2ccccc2)n1	149
CN1CC(CNC(=O)C(F)(F)F)c2c[nH]c3cccc(c23)C1=O (centres undefined)	174 to 177
CN1Cc2c(C=NO)ncn2-c2ccc(F)cc2C1=O	247 to 250
CN1CCN(C2=Nc3ccccc3N3CCc4cccc2c43)CC1	149 to 151
CCCOc1ccc(C(=O)Nc2ccc3cc(CN4CCCC4)cnc3c2C)c(F)c1	146
CCCCCCCCCCCCCCOc1ccc(CC(=O)Cl)cc1OC	56 to 57
Cn1c(-c2ccc(Cl)cc2)c(C#N)c(Cl)c1C(F)(F)F	110
CC(C)N1CCc2ccc(C(=O)CCC(=O)N3CCC(c4ccc(Cl)cc4)CC3)cc2C1	113 to 115
COc1ccc(CCN(C)c2cc(C)sc2CO)cc1OC	149
COc1ccc(Cl)c(CC(Nc2nc3ccc(Cl)cc3cc2C(=O)O)C(=O)O)c1 (centres undefined)	180 to 185

Compound	melting point [°C]
CCN(c1ccncc1)c1ccccc1C(=O)N1CCCCC1	123 to 124
CC1(C)CCC(C)(C)c2cc(COc3c(C(=O)O)cccc3-c3ccccc3)ccc21	144 to 146
NS(=O)(=O)c1ccc2c(c1)C(O)CCC2 (centres undefined)	137 to 138
OC1(c2ccccc2)CCN(CCCC2COc3ccccc3O2)CC1 (centres undefined)	95 to 98
Clc1ccc2c(c1)[C@@H](c1ccccc1)[C@H]1CN(Cc3ccccc3)C[C@H]1C2 (racemic)	115 to 117
C=Cc1cc(-c2cccnc2)no1	60 to 64
O=C(O)CN1CCC[C@H](OCc2cc(C(F)(F)F)cc(C(F)(F)F)c2)[C@@H]1c1ccccc1	60 to 63
Nc1nc2ccccc2n1-c1cccc(-c2cscc2CO)c1	106 to 108
CCOC(=O)c1cc2cccc(N(C)S(=O)(=O)c3cccs3)c2[nH]1	164 to 165
Cc1ccc(C)c(-c2cccc(C=CC(=O)O)c2)c1	156 to 157
COc1cccc(C(=O)NN2C(c3ccccc3)=NOC2(C)C)c1C	141 to 142
CCOC(=O)c1cc2cc(OCCCS(C)(=O)=O)cc(N)c2[nH]1	187 to 188
O=C(O)c1ccc(-c2cccc3cc(Cc4cccc(C(F)(F)F)c4)sc23)cc1	200 to 201
CC1(O)CN(c2c(F)cc3c(=O)c(C(=O)O)cn(C4CC4)c3c2F)C1	290 to 294
c1ccc(Cn2ccnc2COc2nn3c(-c4ccon4)nnc3c3ccccc23)cc1	198
O=C(O)C1CC(c2ccc(-c3ccc(N4C[C@H](Cn5ccnn5)OC4=O)cc3F)cn2)=NO1 (some centres undefined)	190 to 194
CCCCOc1ccc(S(C)(=O)=O)cc1C(N)=O	146 to 150
COc1ccc(-c2ccnc3c(C(=O)c4cccs4)cnn23)c(OC)c1	146 to 148
CCN=C1SC(=NOC(=O)N(C)SC(Cl)(Cl)Cl)C(C)(C)S1	69 to 71
Brc1ccc(-c2nc(COc3ccc(CCCn4ccnc4)cc3)co2)o1	115 to 116
COc1cc2c3c(c1)-c1c(O)cccc1CC3N(C)CC2 (centres undefined)	214 to 215
CN(C)C1(c2cccc(F)c2)CCC2(CC1)NCCc1c2[nH]c2ccccc12 (centres undefined)	220 to 225
Cc1on(C(=O)N(Cc2ccccc2)c2ccccc2)c(=O)c1Cl	118 to 119

Second part, the compound after the results:

melting point [°C]	Compound
100 to 104	COCc1nn(C)c(O)c1C(=O)c1ccc(S(C)(=O)=O)c(COC)c1C
93 to 94	Cc1cc(N2CCN(CC(=O)c3ccc(NS(C)(=O)=O)cc3)CC2)ccn1
133	CNS(=O)(=O)Nc1cc(-c2nn(C)c(OC(F)F)c2Cl)c(Cl)cc1Cl
142 to 144	COc1ccc2c(c1)CC1(CCC(=O)CC1)C21OCCO1
276 to 278	COC(=O)c1ccc(N2CCC(c3ccc4c(c3)C(C)(C)CCC4(C)C)=N2)cc1
118 to 122	CCCCc1oc2ccccc2c1C(=O)NCc1ccc2c(-c3ccc(OC)cc3)c(O)ccc2c1
123 to 124	O=C(Nc1ccc2c(c1)C(O)CC2)C(F)(F)F (centres undefined)
105 to 107	CCC(=O)NCCC1CCc2ccc3nn(C)cc3c21 (centres undefined)
90 to 91	CC(Cc1ccc(F)cc1F)C(N)=O (centres undefined)
169 to 170	O=C1c2ccccc2C(=O)N1c1cccc(CBr)n1
244 to 246	CCn1cc(C(=O)O)c(=O)c2cc(F)c(N3CCN(C)C(C)C3)cc21 (centres undefined)
137 to 140	COc1ccc(OC)c(C(=O)Nc2ccc(N3CCCC3)cc2C(C)=O)c1
44 to 47	CCCCCC(=O)C=Cc1ccc(Cl)cc1
228 to 230	Nc1ccc(N2C(=O)c3ccc(Cl)cc3C2=O)c(CO)c1
210	CCn1c(=O)ccn(-c2ccc(N3CCN(c4ccc(OC)cc4)CC3)cc2)c1=O
167 to 169	CCCCc1nn(-c2cc(NC(=O)CC)ccc2C(F)(F)F)c(=O)n1Cc1ccc(-c2ccccc2S(=O)(=O)NC(=O)OC(C)(C)C)cc1F
247	Cn1cc(-c2cc(-c3cnc4c(c3)CCN4)ccn2)n(-c2ccc(C(C)(C)C#N)cc2)c1=O
194 to 195	O=C(Nc1ccc(OC(F)(F)F)cc1)c1c(O)c2ccccc2oc1=O
184 to 186	CC(=NOCCOc1ccc(CC2SC(=O)NC2=O)cc1)c1ccc(-c2ccc(C)cc2)cc1 (centres undefined)
116 to 119	CC(C)(C)c1cc2c(c(C(C)(C)C)c1)OC(=O)C2c1ccccc1 (centres undefined)
280 to 282	O=C1N[C@H](c2ccccc2)CSC[C@@H]1N1C(=O)c2ccccc2C1=O
62 to 63	c1ccc(COc2cccc3c2OCO3)cc1
99 to 101	Clc1ccccc1Oc1cnccc1N1CCNCC1
65 to 67	CCN(CC)CCCCC(=O)c1cccc2cc3c(C(=O)CCCCN(CC)CC)cccc3cc12
313 to 315	Cn1cc(S(=O)(=O)Cl)c(=O)c2ccccc21
188 to 189	CCc1cccc2c(NC(=O)C[C@H]3O[C@H](c4cccc(OC)c4OC)c4cc(Cl)ccc4N(CC(C)(C)CO)C3=O)c(C(=O)O)oc12

melting point [°C]	Compound
118 to 119	Cc1cc([N+](=O)[O-])ccc1N=C1SCC2(CCCC2)N1C1CCCC1
74 to 77	Cc1ccc(S(=O)(=O)OCC2Cc3cc(Cl)cc(C(C)(C)C)c3O2)cc1 (centres undefined)
181 to 185	O=C(O)c1ccc(Cl)nc1Nc1ccccc1
156 to 158	CN(C)C(=S)N(C)Cc1ccc(CCn2cnc3cc(-c4ccc(Cl)cc4)sc3c2=O)cc1
129 to 130	CCOC(=O)c1conc1-c1ccc(Cl)c(Cl)c1
134 to 135	CC(C)(C)OC(=O)CN1C(=O)[C@@H](N[C@@H](CCCCNC(=O)OC(C)(C)C)C(=O)O)CSc2ccccc21
113 to 114	CN1C(=O)CN(CCc2ccccc2)C1=O
184	Cc1c(-c2cncnc2)ssc1=S
188 to 190	COC(=O)c1ccc(O)cn1
186	CCC#CCOc1ccc(/C=C/C(=O)Nc2ccccc2C(=O)O)cc1OC
157 to 158	O=[N+]([O-])c1ccc(S(=O)(=O)NCc2ccccc2C(F)(F)F)c([N+](=O)[O-])c1
125 to 127	CCOC(=O)Cn1c(C(=O)NCc2nnc(C)n2-c2sc(CC)cc2C(=O)c2ccccc2Cl)cc2cc(F)ccc21
46.5 to 47	COC(=O)c1ncoc1C
96 to 100	OC(Cn1cncn1)(Cn1cnc(-c2ccc(F)cc2)n1)c1ccc(C(F)(F)F)cc1F (centres undefined)
75 to 77	COc1cccc(NC(=O)c2ccccc2N)c1
126 to 127	O=[N+]([O-])c1ccc(NS(=O)(=O)c2cccc(C(F)(F)F)c2)c(Cl)c1
111 to 113	O=C(O)CCC(=O)OCc1ccc(-c2nn(-c3ccc(Br)cc3)c3ccccc23)o1
250 to 252	Cc1cc([N+](=O)[O-])cc(C)c1Oc1ccc([N+](=O)[O-])c(Nc2ccc(C#N)cc2)n1
231 to 234	N#Cc1ccc2c([N+](=O)[O-])cc3c(c2c1)C(CCl)CN3 (centres undefined)
137 to 138	CCCCOc1ccc(C(C)N(O)C(N)=O)cc1 (centres undefined)
165 to 167	COC(=O)c1ccnc(N2CCN(Cc3cccnc3)C2=O)c1
134 to 137	O=C(COc1ccccc1)Nc1ccc(CN2C(=O)[C@H]3CCC[C@H]3N(C(=O)CN3C(=O)c4ccccc4C3=O)c3ccccc32)cc1 (relative stereo)
161	O=Cc1ccc(C(=O)Nc2ccncc2)cc1
41 to 43	CC(C)c1cccc(-c2ccc(F)cc2)c1O
94 to 96	CON(C)C(=O)c1cc(Br)cnc1N1CCCC1
72 to 76	CCO[C@@H]1[C@@H](OC)[C@H](C)O[C@@H](OC(=O)N(C(=O)CCC(=O)OC)c2ccc(-c3ncn(-c4ccc(OC(F)(F)C(F)(F)F)cc4)n3)cc2)[C@@H]1OC

Reference: a melting point compilation (Tetko et al.; mined from patent text by program, amines drawn as free bases though some values may be those of a salt)
